Test results as given in the supplement of paper PMC10307832.

Legend:
Test in all cases: relative viability (nuclei count vs DMSO), 5 days (fraction); higher = more cells survive
NCI-H1915 = tested on: NCI-H1915
Outline: (§1)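 Relative viability was taken as the ratio of nuclei in treated wells to nuclei in vehicle wells. Lung cancer cell lines in 1536-well plates received compounds by pin tool one day after seeding, either one drug alone or a fixed anchor-drug dose plus five library-drug doses (not always all listed) in √10 steps. Nuclei were counted on 4× images after 5 days of treatment, and values are medians of duplicate plates.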

NCI-H23 = tested on: NCI-H23
Outline: as §1

SK-LU-1 = tested on: SK-LU-1
Outline: as §1

EKVX = tested on: EKVX
Outline: as §1

H3255 = tested on: H3255
Outline: as §1

LU99A = tested on: LU99A
Outline: as §1

EMC-BAC-2 = tested on: EMC-BAC-2
Outline: as §1

NCI-H441 = tested on: NCI-H441
Outline: as §1

NCI-H1793 = tested on: NCI-H1793
Outline: as §1

ChaGo-K-1 = tested on: ChaGo-K-1
Outline: as §1

LCLC-97TM1 = tested on: LCLC-97TM1
Outline: as §1

HCC-827 = tested on: HCC-827
Outline: as §1

NCI-H322M = tested on: NCI-H322M
Outline: as §1

LC-2-ad = tested on: LC-2-ad
Outline: as §1

NCI-H1944 = tested on: NCI-H1944
Outline: as §1

NCI-H460 = tested on: NCI-H460
Outline: as §1

HARA = tested on: HARA
Outline: as §1

NCI-H1437 = tested on: NCI-H1437
Outline: as §1

HCC-15 = tested on: HCC-15
Outline: as §1

PC-3 [JPC-3] = tested on: PC-3 [JPC-3]
Outline: as §1

NCI-H1792 = tested on: NCI-H1792
Outline: as §1

NCI-H2126 = tested on: NCI-H2126
Outline: as §1

Structure (SMILES): O=C(O)CCCCC(CCSCc1ccccc1)SCc1ccccc1 (centres undefined) [CPI-613] + CC1(C)CCC(c2ccc(Cl)cc2)=C(CN2CCN(c3ccc(C(=O)NS(=O)(=O)c4ccc(N[C@H](CCN5CCOCC5)CSc5ccccc5)c(S(=O)(=O)C(F)(F)F)c4)cc3)CC2)C1 [Navitoclax] (partner 0.5 µM)
- relative viability (NCI-H1915; first compound 5 µM): 0.781
- relative viability (NCI-H1915; first compound 15.81 µM): 0.778
- relative viability (NCI-H1915; first compound 50 µM): 0.724
- relative viability (NCI-H1915; first compound 158.11 µM): 0.552
- relative viability (NCI-H1915; first compound 500 µM): 0.55
- relative viability (NCI-H23; first compound 5 µM): 0.858
- relative viability (NCI-H23; first compound 15.81 µM): 0.711
- relative viability (NCI-H23; first compound 50 µM): 0.801
- relative viability (NCI-H23; first compound 158.11 µM): 0.564
- relative viability (NCI-H23; first compound 500 µM): 0.027
- relative viability (SK-LU-1; first compound 5 µM): 0.78
- relative viability (SK-LU-1; first compound 15.81 µM): 0.586
- relative viability (SK-LU-1; first compound 50 µM): 0.857
- relative viability (SK-LU-1; first compound 158.11 µM): 0.195
- relative viability (SK-LU-1; first compound 500 µM): 0.156
- relative viability (EKVX; first compound 5 µM): 0.945
- relative viability (EKVX; first compound 15.81 µM): 0.875
- relative viability (EKVX; first compound 50 µM): 0.898
- relative viability (EKVX; first compound 158.11 µM): 0.483
- relative viability (EKVX; first compound 500 µM): 0.951
- relative viability (H3255; first compound 5 µM): 0.497
- relative viability (H3255; first compound 15.81 µM): 0.476
- relative viability (H3255; first compound 50 µM): 0.337
- relative viability (H3255; first compound 158.11 µM): 0.498
- relative viability (H3255; first compound 500 µM): 0.562
- relative viability (LU99A; first compound 5 µM): 0.631
- relative viability (LU99A; first compound 15.81 µM): 0.77
- relative viability (LU99A; first compound 50 µM): 0.816
- relative viability (LU99A; first compound 158.11 µM): 0.142
- relative viability (LU99A; first compound 500 µM): 0.0335
- relative viability (EMC-BAC-2; first compound 5 µM): 1.15
- relative viability (EMC-BAC-2; first compound 15.81 µM): 1.13
- relative viability (EMC-BAC-2; first compound 50 µM): 1.15
- relative viability (EMC-BAC-2; first compound 158.11 µM): 1.01
- relative viability (EMC-BAC-2; first compound 500 µM): 1.06
- relative viability (NCI-H441; first compound 5 µM): 0.564
- relative viability (NCI-H441; first compound 15.81 µM): 0.805
- relative viability (NCI-H441; first compound 50 µM): 0.731
- relative viability (NCI-H441; first compound 158.11 µM): 0.186
- relative viability (NCI-H441; first compound 500 µM): 0.0161
- relative viability (NCI-H1793; first compound 5 µM): 0.393
- relative viability (NCI-H1793; first compound 50 µM): 0.346
- relative viability (NCI-H1793; first compound 158.11 µM): 0.363
- relative viability (NCI-H1793; first compound 500 µM): 0.1
- relative viability (ChaGo-K-1; first compound 5 µM): 0.671
- relative viability (ChaGo-K-1; first compound 15.81 µM): 0.982
- relative viability (ChaGo-K-1; first compound 50 µM): 0.935
- relative viability (ChaGo-K-1; first compound 158.11 µM): 0.882
- relative viability (ChaGo-K-1; first compound 500 µM): 0.643
- relative viability (LCLC-97TM1; first compound 5 µM): 0.299
- relative viability (LCLC-97TM1; first compound 15.81 µM): 0.502
- relative viability (LCLC-97TM1; first compound 50 µM): 0.658
- relative viability (LCLC-97TM1; first compound 158.11 µM): 0.079
- relative viability (LCLC-97TM1; first compound 500 µM): 0.0431
- relative viability (HCC-827; first compound 5 µM): 0.983
- relative viability (HCC-827; first compound 15.81 µM): 0.96
- relative viability (HCC-827; first compound 50 µM): 0.877
- relative viability (HCC-827; first compound 158.11 µM): 0.414
- relative viability (HCC-827; first compound 500 µM): 0.065
- relative viability (NCI-H322M; first compound 5 µM): 1.21
- relative viability (NCI-H322M; first compound 15.81 µM): 1.17
- relative viability (NCI-H322M; first compound 50 µM): 1.27
- relative viability (NCI-H322M; first compound 158.11 µM): 1.05
- relative viability (NCI-H322M; first compound 500 µM): 0.982
- relative viability (LC-2-ad; first compound 5 µM): 0.431
- relative viability (LC-2-ad; first compound 15.81 µM): 0.354
- relative viability (LC-2-ad; first compound 50 µM): 0.297
- relative viability (LC-2-ad; first compound 158.11 µM): 0.0601
- relative viability (LC-2-ad; first compound 500 µM): 0.0074
- relative viability (NCI-H1944; first compound 5 µM): 0.998
- relative viability (NCI-H1944; first compound 15.81 µM): 1.01
- relative viability (NCI-H1944; first compound 50 µM): 1.02
- relative viability (NCI-H1944; first compound 158.11 µM): 0.769
- relative viability (NCI-H1944; first compound 500 µM): 0.627
- relative viability (NCI-H460; first compound 5 µM): 1.12
- relative viability (NCI-H460; first compound 15.81 µM): 1.09
- relative viability (NCI-H460; first compound 50 µM): 1.03
- relative viability (NCI-H460; first compound 158.11 µM): 0.29
- relative viability (NCI-H460; first compound 500 µM): 0.0105
- relative viability (HARA; first compound 5 µM): 1.14
- relative viability (HARA; first compound 15.81 µM): 1.13
- relative viability (HARA; first compound 50 µM): 1.16
- relative viability (HARA; first compound 158.11 µM): 0.504
- relative viability (HARA; first compound 500 µM): 0.0371
- relative viability (NCI-H1437; first compound 5 µM): 1.03
- relative viability (NCI-H1437; first compound 15.81 µM): 0.957
- relative viability (NCI-H1437; first compound 50 µM): 1.03
- relative viability (NCI-H1437; first compound 158.11 µM): 0.199
- relative viability (NCI-H1437; first compound 500 µM): 0.0367
- relative viability (HCC-15; first compound 5 µM): 0.625
- relative viability (HCC-15; first compound 15.81 µM): 0.68
- relative viability (HCC-15; first compound 50 µM): 0.612
- relative viability (HCC-15; first compound 158.11 µM): 0.309
- relative viability (HCC-15; first compound 500 µM): 0.278
- relative viability (PC-3 [JPC-3]; first compound 5 µM): 0.819
- relative viability (PC-3 [JPC-3]; first compound 15.81 µM): 0.7
- relative viability (PC-3 [JPC-3]; first compound 50 µM): 0.696
- relative viability (PC-3 [JPC-3]; first compound 158.11 µM): 0.448
- relative viability (PC-3 [JPC-3]; first compound 500 µM): 0.469
- relative viability (NCI-H1792; first compound 5 µM): 0.518
- relative viability (NCI-H1792; first compound 15.81 µM): 0.595
- relative viability (NCI-H1792; first compound 50 µM): 0.603
- relative viability (NCI-H1792; first compound 158.11 µM): 0.411
- relative viability (NCI-H1792; first compound 500 µM): 0.601
- relative viability (NCI-H2126; first compound 5 µM): 0.9
- relative viability (NCI-H2126; first compound 15.81 µM): 0.805
- relative viability (NCI-H2126; first compound 50 µM): 0.815
- relative viability (NCI-H2126; first compound 158.11 µM): 0.662
- relative viability (NCI-H2126; first compound 500 µM): 0.645
